Results published in ChEMBL document CHEMBL1201862, “PubChem BioAssay data set” (2004).
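A five-concentration, 48-hour dose response in 96-well plates underlies each endpoint, interpolated linearly between surrounding concentrations. GI50 = concentration required for 50% inhibition of growth.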 The source made the active and inactive calls. No stated cut-off is given here; in the data, active = GI50 up to about 1.1 µM and inactive = higher.

How the values were obtained:
Assay in all cases: NCI-60 cell line screen, 48 h
786-0 = test system: 786-0
A498 = test system: A498
A549 = test system: A549
ACHN = test system: ACHN
CAKI-1 = test system: CAKI-1
CCRF-CEM = test system: CCRF-CEM
COLO 205 = test system: COLO 205
DLD-1 = test system: DLD-1
DMS-114 = test system: DMS-114
DMS-273 = test system: DMS-273
EKVX = test system: EKVX
HCC 2998 = test system: HCC 2998
HCT-116 = test system: HCT-116
HCT-15 = test system: HCT-15
HL-60 = test system: HL-60
HOP-18 = test system: HOP-18
HOP-62 = test system: HOP-62
HOP-92 = test system: HOP-92
HT-29 = test system: HT-29
IGROV-1 = test system: IGROV-1
K562 = test system: K562
KM-20L2 = test system: KM-20L2
KM12 = test system: KM12
LOX IMVI = test system: LOX IMVI
LXFL 529 = test system: LXFL 529
M14 = test system: M14
M19-MEL = test system: M19-MEL
MOLT-4 = test system: MOLT-4
Malme-3M = test system: Malme-3M
NCI-H226 = test system: NCI-H226
NCI-H23 = test system: NCI-H23
NCI-H460 = test system: NCI-H460
NCI-H522 = test system: NCI-H522
OVCAR-3 = test system: OVCAR-3
OVCAR-4 = test system: OVCAR-4
OVCAR-5 = test system: OVCAR-5
OVCAR-8 = test system: OVCAR-8
RPMI-8226 = test system: RPMI-8226
RXF 393 = test system: RXF 393
SF-268 = test system: SF-268
SF-295 = test system: SF-295
SF-539 = test system: SF-539
SK-MEL-28 = test system: SK-MEL-28
SK-MEL-2 = test system: SK-MEL-2
SK-MEL-5 = test system: SK-MEL-5
SK-OV-3 = test system: SK-OV-3
SN12C = test system: SN12C
SNB-19 = test system: SNB-19
SNB-75 = test system: SNB-75
SNB-78 = test system: SNB-78
SR = test system: SR
SW-620 = test system: SW-620
TK-10 = test system: TK-10
U-251 = test system: U-251
UACC-257 = test system: UACC-257
UACC-62 = test system: UACC-62
UO-31 = test system: UO-31

## O=C1C2C=CC(n3[nH]c(=O)n(Cc4ccccc4)c3=O)CC2C(=O)N1c1ccc(Br)cc1 (centres undefined)
786-0
  GI50: > 100 µM (inactive)
A498
  GI50: 56.8 µM (inactive)
A549
  GI50: > 100 µM (inactive)
ACHN
  GI50: > 100 µM (inactive)
CAKI-1
  GI50: > 100 µM (inactive)
CCRF-CEM
  GI50: > 100 µM (inactive)
COLO 205
  GI50: > 100 µM (inactive)
DLD-1
  GI50: > 100 µM (inactive)
DMS-114
  GI50: > 100 µM (inactive)
DMS-273
  GI50: > 100 µM (inactive)
EKVX
  GI50: > 100 µM (inactive)
HCC 2998
  GI50: > 100 µM (inactive)
HCT-116
  GI50: > 100 µM (inactive)
HCT-15
  GI50: > 100 µM
HL-60
  GI50: > 100 µM (inactive)
HOP-18
  GI50: > 100 µM (inactive)
HOP-62
  GI50: > 100 µM (inactive)
HOP-92
  GI50: > 100 µM (inactive)
HT-29
  GI50: > 100 µM (inactive)
IGROV-1
  GI50: > 100 µM (inactive)
K562
  GI50: > 100 µM (inactive)
KM-20L2
  GI50: > 100 µM (inactive)
KM12
  GI50: > 100 µM (inactive)
LOX IMVI
  GI50: > 100 µM (inactive)
LXFL 529
  GI50: > 100 µM (inactive)
M14
  GI50: > 100 µM (inactive)
M19-MEL
  GI50: > 100 µM (inactive)
MOLT-4
  GI50: > 100 µM (inactive)
Malme-3M
  GI50: > 100 µM (inactive)
NCI-H226
  GI50: > 100 µM (inactive)
NCI-H23
  GI50: > 100 µM (inactive)
NCI-H460
  GI50: > 100 µM (inactive)
NCI-H522
  GI50: > 100 µM (inactive)
OVCAR-3
  GI50: > 100 µM (inactive)
OVCAR-4
  GI50: > 100 µM (inactive)
OVCAR-5
  GI50: > 100 µM (inactive)
OVCAR-8
  GI50: > 100 µM (inactive)
RPMI-8226
  GI50: > 100 µM (inactive)
RXF 393
  GI50: > 100 µM (inactive)
SF-268
  GI50: > 100 µM (inactive)
SF-295
  GI50: > 100 µM (inactive)
SF-539
  GI50: > 100 µM (inactive)
SK-MEL-28
  GI50: > 100 µM (inactive)
SK-MEL-2
  GI50: > 100 µM (inactive)
SK-MEL-5
  GI50: > 100 µM (inactive)
SK-OV-3
  GI50: > 100 µM (inactive)
SN12C
  GI50: > 100 µM (inactive)
SNB-19
  GI50: > 100 µM (inactive)
SNB-75
  GI50: 47.1 µM (inactive)
SNB-78
  GI50: > 100 µM (inactive)
SR
  GI50: > 100 µM (inactive)
SW-620
  GI50: > 100 µM (inactive)
TK-10
  GI50: > 100 µM (inactive)
U-251
  GI50: > 100 µM (inactive)
UACC-257
  GI50: > 100 µM (inactive)
UACC-62
  GI50: > 100 µM (inactive)
UO-31
  GI50: > 100 µM (inactive)

## CN(C)CC(C)(C)/C(=N\Nc1ccccc1)c1ccccc1
786-0
  GI50: 45.3 µM (inactive)
A498
  GI50: 82.8 µM (inactive)
A549
  GI50: 92.5 µM (inactive)
ACHN
  GI50: 20.1 µM (inactive)
CCRF-CEM
  GI50: 29.7 µM (inactive)
COLO 205
  GI50: 64.3 µM (inactive)
DLD-1
  GI50: 30.4 µM (inactive)
DMS-114
  GI50: 46.7 µM (inactive)
DMS-273
  GI50: 33.5 µM (inactive)
EKVX
  GI50: 47.2 µM (inactive)
HCT-116
  GI50: 68.4 µM (inactive)
HCT-15
  GI50: 16.2 µM
HL-60
  GI50: 21 µM (inactive)
HOP-18
  GI50: 35 µM (inactive)
HOP-62
  GI50: 45.2 µM (inactive)
HT-29
  GI50: 35.9 µM (inactive)
IGROV-1
  GI50: 36.4 µM (inactive)
K562
  GI50: 28.1 µM (inactive)
KM-20L2
  GI50: 16.8 µM (inactive)
KM12
  GI50: 43.3 µM (inactive)
LOX IMVI
  GI50: 14.6 µM (inactive)
LXFL 529
  GI50: 18.7 µM (inactive)
M14
  GI50: 21.9 µM (inactive)
M19-MEL
  GI50: 82.2 µM (inactive)
MOLT-4
  GI50: 46.3 µM (inactive)
Malme-3M
  GI50: 46.8 µM (inactive)
NCI-H23
  GI50: > 100 µM (inactive)
NCI-H460
  GI50: 53.3 µM (inactive)
NCI-H522
  GI50: 44.3 µM (inactive)
OVCAR-3
  GI50: 54.8 µM (inactive)
OVCAR-4
  GI50: 45.4 µM (inactive)
OVCAR-5
  GI50: 46.6 µM (inactive)
OVCAR-8
  GI50: 99.8 µM (inactive)
RPMI-8226
  GI50: 10.3 µM (inactive)
RXF 393
  GI50: 37.3 µM (inactive)
SF-268
  GI50: 31.8 µM (inactive)
SF-295
  GI50: 21.1 µM (inactive)
SF-539
  GI50: 24.6 µM (inactive)
SK-MEL-28
  GI50: 39.9 µM (inactive)
SK-MEL-2
  GI50: 58.1 µM (inactive)
SK-MEL-5
  GI50: 70 µM (inactive)
SK-OV-3
  GI50: 21.8 µM (inactive)
SN12C
  GI50: 48.8 µM (inactive)
SNB-19
  GI50: > 100 µM (inactive)
SNB-75
  GI50: 37.1 µM (inactive)
SNB-78
  GI50: 70.1 µM (inactive)
SW-620
  GI50: 29.1 µM (inactive)
TK-10
  GI50: 22.7 µM (inactive)
U-251
  GI50: 37.4 µM (inactive)
UACC-257
  GI50: 51.6 µM (inactive)
UACC-62
  GI50: 14.8 µM (inactive)
UO-31
  GI50: 12.3 µM (inactive)

## Cc1cccc2ns[s+]c12
A498
  GI50: > 100 µM (inactive)
A549
  GI50: > 100 µM (inactive)
ACHN
  GI50: > 100 µM (inactive)
CAKI-1
  GI50: > 100 µM (inactive)
CCRF-CEM
  GI50: 33.3 µM (inactive)
COLO 205
  GI50: > 100 µM (inactive)
DLD-1
  GI50: > 100 µM (inactive)
DMS-114
  GI50: 20.5 µM (inactive)
DMS-273
  GI50: 52.4 µM (inactive)
EKVX
  GI50: > 100 µM (inactive)
HCC 2998
  GI50: > 100 µM (inactive)
HCT-116
  GI50: 20 µM (inactive)
HCT-15
  GI50: 19.4 µM
HL-60
  GI50: 36.3 µM (inactive)
HOP-18
  GI50: > 100 µM (inactive)
HOP-62
  GI50: > 100 µM (inactive)
HOP-92
  GI50: > 100 µM (inactive)
HT-29
  GI50: 43.1 µM (inactive)
IGROV-1
  GI50: > 100 µM (inactive)
K562
  GI50: 29.9 µM (inactive)
KM-20L2
  GI50: > 100 µM (inactive)
KM12
  GI50: > 100 µM (inactive)
LXFL 529
  GI50: 37.8 µM (inactive)
M14
  GI50: > 100 µM (inactive)
MOLT-4
  GI50: 38.5 µM (inactive)
Malme-3M
  GI50: > 100 µM (inactive)
NCI-H226
  GI50: > 100 µM (inactive)
NCI-H23
  GI50: > 100 µM (inactive)
NCI-H460
  GI50: 23 µM (inactive)
OVCAR-3
  GI50: > 100 µM (inactive)
OVCAR-4
  GI50: > 100 µM (inactive)
OVCAR-5
  GI50: > 100 µM (inactive)
OVCAR-8
  GI50: 47.1 µM (inactive)
RPMI-8226
  GI50: 99.5 µM (inactive)
SF-268
  GI50: 82 µM (inactive)
SF-295
  GI50: > 100 µM (inactive)
SF-539
  GI50: 50.7 µM (inactive)
SK-MEL-28
  GI50: > 100 µM (inactive)
SK-MEL-5
  GI50: 89.7 µM (inactive)
SK-OV-3
  GI50: > 100 µM (inactive)
SN12C
  GI50: > 100 µM (inactive)
SNB-19
  GI50: 66.8 µM (inactive)
SNB-75
  GI50: 59 µM (inactive)
SNB-78
  GI50: > 100 µM (inactive)
SW-620
  GI50: 17.4 µM (inactive)
TK-10
  GI50: > 100 µM (inactive)
U-251
  GI50: 33.9 µM (inactive)
UACC-257
  GI50: > 100 µM (inactive)
UACC-62
  GI50: 38.5 µM (inactive)
UO-31
  GI50: 53 µM (inactive)
